The text below walks through data of paper PMC5461540, “MOB1 Mediated Phospho-recognition in the Core Mammalian Hippo Pathway” (Molecular & Cellular Proteomics : MCP, 2017).

In general, Kd refers to the equilibrium constant for the complex coming apart.

One assay has as its target T1, MOB1A (Homo sapiens, UniProt Q9H8S9).
T1 construct: MOB1A (2–216, NP_060691); 6xHis (N, cleaved yes); GST (N, cleaved yes); made in house; host or cells: E. coli BL21 (DE3) CodonPlus RIL
T1 sequence (Q9H8S9 2-216): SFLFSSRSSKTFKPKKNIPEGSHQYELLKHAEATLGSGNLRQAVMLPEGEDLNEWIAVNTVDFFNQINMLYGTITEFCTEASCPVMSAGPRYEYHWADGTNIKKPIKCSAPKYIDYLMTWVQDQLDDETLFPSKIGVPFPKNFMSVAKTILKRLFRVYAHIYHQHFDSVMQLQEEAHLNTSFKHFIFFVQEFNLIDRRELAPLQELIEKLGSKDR
Briefly: Fluorescence polarization peptide binding assay, MOB1A wild-type. To be noted: FP, 20 nM FITC labeled peptide, pH 7.5. The text has this: (§1) Human MST1 kinase domain (amino acids 2–326, corresponding to NCBI RefSeq protein NP_006273), MST2 kinase domain (2–322, NP_006272), MOB1B (2–216, NP_001231695), MOB1A (2–216, NP_060691) wild-type and indicated MOB1A mutant proteins, MOB2 (2–237, NP_001165694), MOB3A (2–217, NP_570719), MOB3B (2–216, NP_079037), MOB3C (2–216, NP_660322), MOB4 (2–225, NP_056202), MOB4^RRR→AAA (2–225), and yeast Mob1 (79–314, NP_012160) were expressed in E. coli BL21 (DE3) CodonPlus RIL cells as N-terminal dual 6xhistidine (HIS) and glutathione S-transferase (GST), Tobacco Etch Virus (TEV) cleavable, fusion proteins using a modified pETM-30 vector. MOB wild-type and mutants were purified in batch on glutathione-Sepharose resin (GE Healthcare, Uppsala, Sweden) and eluted by cleavage from the affinity tags with HIS tagged TEV protease. TEV protease was removed from the eluted protein by subtractive immobilized-metal affinity chromatography. Cleaved protein was then concentrated and buffer exchanged by size exclusion chromatography (SEC) using a Superdex 75 120 ml column (GE Healthcare). For GST pull-downs and Far-Western analysis, the TEV cleavage step was omitted.
MST1 phosphopeptides encompassing pT353 and pT367 (15-mers) used for crystallization and FITC labeled nonphosphorylated and phosphorylated MST1 T353 peptides, T367 peptides, T329-T340 peptides, T380-T387 peptides and optimized Nud1-like peptides for fluorescence polarization binding experiments were purchased from Biomatik (Cambridge, ON). Peptide sequences used for crystallization studies are: T353, […](p)TMIEH and T367, […](p)TMVINA. All peptides used for biophysical studies are listed in supplemental Table S1.
Twelve-point fluorescence polarization binding measurements were performed in triplicate in 384-well plate format using an Analyst HT (Artisan-Scientific, Sunnyvale, CA) reader. Each 20 μl measurement condition contained 20 nM FITC labeled MST1 peptide or Nud1-like peptide and the indicated concentration of MOB proteins in 25 mM HEPES pH 7.5, 150 mM NaCl, 2 mM DTT, and 1 mg/ml bovine serum albumin (BSA). Kd values were obtained by fitting the results to a one site-specific binding model using GraphPad Prism.
For orientation: In fluorescence polarisation assays a small probe gives low polarisation when free and higher when bound to something large.

The target in a further assay is T2, MOB1A KRR→3A mutant (Homo sapiens, UniProt Q9H8S9, K153A/R154A/R157A).
T2 construct: MOB1A (2–216, NP_060691) wild-type and indicated MOB1A mutant proteins; 6xHis (N, cleaved yes); GST (N, cleaved yes); made in house; host or cells: E. coli BL21 (DE3) CodonPlus RIL
T2 sequence (Q9H8S9 2-216 K153A/R154A/R157A): T1 sequence (Q9H8S9 2-216) with K152A, R153A, R156A
The experiment in a line: Fluorescence polarization peptide binding assay, MOB1A KRR→3A mutant (K153, R154, R157 to alanine). To be noted: Fig. 2B, MOB1A KRR→3A (K153, R154, R157 to alanine); FP, 20 nM FITC labeled peptide, pH 7.5; n = 3; N.D. = Kd could not be determined.
Excerpt: as §1, with “TEV protease was removed from the eluted protein by subtractive immobilized-metal affinity chromatography. Cleaved protein was then concentrated and buffer exchanged by size exclusion chromatography (SEC) using a Superdex 75 120 ml column (GE Healthcare). For GST pull-downs and Far-Western analysis, the TEV cleavage step was omitted.” left out
(§2) MST1 phosphopeptides encompassing pT353 and pT367 (15-mers) used for crystallization and FITC labeled nonphosphorylated and phosphorylated MST1 T353 peptides, T367 peptides, T329-T340 peptides, T380-T387 peptides and optimized Nud1-like peptides for fluorescence polarization binding experiments were purchased from Biomatik (Cambridge, ON). […]
(§3) Twelve-point fluorescence polarization binding measurements were performed in triplicate in 384-well plate format using an Analyst HT (Artisan-Scientific, Sunnyvale, CA) reader. […]

In a further assay the target is T3, MOB3A (Homo sapiens, UniProt Q96BX8).
T3 construct: MOB3A (2–217, NP_570719); 6xHis (N, cleaved yes); GST (N, cleaved yes); made in house; host or cells: E. coli BL21 (DE3) CodonPlus RIL
T3 sequence (Q96BX8 2-217): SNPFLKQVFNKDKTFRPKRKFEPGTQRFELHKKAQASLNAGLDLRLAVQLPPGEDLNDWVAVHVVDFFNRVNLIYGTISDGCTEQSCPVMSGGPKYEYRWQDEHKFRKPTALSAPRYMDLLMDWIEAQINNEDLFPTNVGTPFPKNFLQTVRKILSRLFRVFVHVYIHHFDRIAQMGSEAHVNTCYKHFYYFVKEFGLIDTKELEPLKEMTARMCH
The experiment in a line: Fluorescence polarization peptide binding assay, MOB3A. To be noted: Fig. 5A, FP, 20 nM FITC labeled peptide, pH 7.5, mean ± S.E. (n = 3), read-out: Kd, μM (to MST1 pT367 peptide).
Excerpt: as §1, with “TEV protease was removed from the eluted protein by subtractive immobilized-metal affinity chromatography. Cleaved protein was then concentrated and buffer exchanged by size exclusion chromatography (SEC) using a Superdex 75 120 ml column (GE Healthcare). For GST pull-downs and Far-Western analysis, the TEV cleavage step was omitted.” left out
as §2, §3

Another assay addresses T4, MOB3B (Homo sapiens, UniProt Q86TA1).
T4 construct: MOB3B (2–216, NP_079037); 6xHis (N, cleaved yes); GST (N, cleaved yes); made in house; host or cells: E. coli BL21 (DE3) CodonPlus RIL
T4 sequence (Q86TA1 2-216): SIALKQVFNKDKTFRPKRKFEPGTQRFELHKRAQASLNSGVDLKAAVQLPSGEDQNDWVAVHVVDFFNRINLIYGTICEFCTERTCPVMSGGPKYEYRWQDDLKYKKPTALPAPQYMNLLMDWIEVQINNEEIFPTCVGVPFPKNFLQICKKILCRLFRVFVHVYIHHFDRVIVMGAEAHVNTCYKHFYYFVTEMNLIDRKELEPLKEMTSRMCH
The experiment in a line: Fluorescence polarization peptide binding assay, MOB3B. The following applies: Fig. 5A, FP, 20 nM FITC labeled peptide, pH 7.5, mean ± S.E. (n = 3), read-out: Kd, μM (to MST1 pT367 peptide).
Excerpt: as §1, with “TEV protease was removed from the eluted protein by subtractive immobilized-metal affinity chromatography. Cleaved protein was then concentrated and buffer exchanged by size exclusion chromatography (SEC) using a Superdex 75 120 ml column (GE Healthcare). For GST pull-downs and Far-Western analysis, the TEV cleavage step was omitted.” left out
as §2, §3

A further assay has as its target T5, MOB3C (Homo sapiens, UniProt Q70IA8).
T5 construct: MOB3C (2–216, NP_660322); 6xHis (N, cleaved yes); GST (N, cleaved yes); made in house; host or cells: E. coli BL21 (DE3) CodonPlus RIL
T5 sequence (Q70IA8 2-216): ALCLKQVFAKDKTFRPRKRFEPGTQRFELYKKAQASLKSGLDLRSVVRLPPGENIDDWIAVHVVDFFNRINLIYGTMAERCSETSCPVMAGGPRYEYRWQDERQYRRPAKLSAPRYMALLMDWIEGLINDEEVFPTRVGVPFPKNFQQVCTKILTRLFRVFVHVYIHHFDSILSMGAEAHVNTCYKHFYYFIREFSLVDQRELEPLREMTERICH
The experiment in a line: Fluorescence polarization peptide binding assay, MOB3C. To be noted: Fig. 5A, FP, 20 nM FITC labeled peptide, pH 7.5, mean ± S.E. (n = 3), read-out: Kd, μM (to MST1 pT367 peptide).
Excerpt: as §1, with “TEV protease was removed from the eluted protein by subtractive immobilized-metal affinity chromatography. Cleaved protein was then concentrated and buffer exchanged by size exclusion chromatography (SEC) using a Superdex 75 120 ml column (GE Healthcare). For GST pull-downs and Far-Western analysis, the TEV cleavage step was omitted.” left out
as §2, §3

A further assay addresses T6, MOB4 (Homo sapiens, UniProt Q9Y3A3).
T6 construct: MOB4 (2–225, NP_056202); 6xHis (N, cleaved yes); GST (N, cleaved yes); made in house; host or cells: E. coli BL21 (DE3) CodonPlus RIL
T6 sequence (Q9Y3A3 2-225): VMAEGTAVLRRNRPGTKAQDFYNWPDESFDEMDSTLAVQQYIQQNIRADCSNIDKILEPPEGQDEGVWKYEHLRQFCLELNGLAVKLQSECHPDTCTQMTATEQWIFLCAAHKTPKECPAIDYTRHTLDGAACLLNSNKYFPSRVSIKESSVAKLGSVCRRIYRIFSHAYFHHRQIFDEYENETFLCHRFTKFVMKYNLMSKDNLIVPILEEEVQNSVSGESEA
Briefly: Fluorescence polarization peptide binding assay, MOB4. To be noted: Fig. 5A, FP, 20 nM FITC labeled peptide, pH 7.5, mean ± S.E. (n = 3), read-out: Kd, μM (to MST1 pT367 peptide).
Excerpt: as §1, with “TEV protease was removed from the eluted protein by subtractive immobilized-metal affinity chromatography. Cleaved protein was then concentrated and buffer exchanged by size exclusion chromatography (SEC) using a Superdex 75 120 ml column (GE Healthcare). For GST pull-downs and Far-Western analysis, the TEV cleavage step was omitted.” left out
as §2, §3

Numbering of substitutions follows the chain as printed. Read-outs that look alike come from different tables or passages of the source. Where a SMILES comes first, the peptide text is derived from it.

As for `CC[C@H](C)[C@H](NC(=O)[C@@H](NC(=O)[C@H](CCSC)NC(=O)[C@@H](NC(=O)CNC(=O)[C@H](CC(C)C)NC(=O)[C@H](CCC(N)=O)NC(=O)[C@H](CO)NC(=O)[C@@H]1CCCN1C(=O)[C@H](CC(C)C)NC(=O)[C@@H](NC(=O)[C@H](CC(=O)O)NC(=O)[C@@H](N)CC(=O)O)[C@@H](C)O)[C@@H](C)OP(=O)(O)O)C(C)C)C(=O)N[C@@H](CC(N)=O)C(=O)N[C@@H](C)C(=O)O` [pT367] (HELM PEPTIDE1{D.D.T.L.P.S.Q.L.G.[C[C@@H](OP(=O)(O)O)[C@H](N[*:1])C(=O)[*:2]].M.V.I.N.A}$$$$V2.0), the Kd at MOB1A (recombinant wild-type MOB1A, read-out: Kd) is 0.68 µM; at MOB1A (Fig. 5A, MOB1A, mean ± S.E. (n = 3), read-out: Kd, μM (to MST1 pT367 peptide)) it was 0.67 ± 0.09 µM; at MOB1A KRR→3A mutant, “no measurable binding”; on MOB3A it was 2 to 3 µM; at MOB3B, 2 to 3 µM; at MOB3C, 2 to 3 µM. The dissociation constant Kd on MOB4 was found to be 12.2 µM.
